Measurements from patent US20240376101A1, “SUBSTITUTED 1,4-DIHYDRO-1,6-NAPHTHYRIDINE AMIDE AND USE THEREOF” (Tuojie Biotech (Shanghai) Co., Ltd., priority 2021, published 2024).
Blank lines part the entries; values can stand above or below the compound they belong to.

Key:
[1] = target: T1, mineralocorticoid receptors (Homo sapiens, UniProt P08235); experiment: Assay for in-vitro antagonistic activity against mineralocorticoid receptors (Gal4-MR LBD luciferase reporter in HEK293T cells, 1 nM aldosterone); format: cell-based
T1 construct: expressed in transfected cells; host or cells: HEK293T
T1 sequence (P08235 726-964 limits assumed): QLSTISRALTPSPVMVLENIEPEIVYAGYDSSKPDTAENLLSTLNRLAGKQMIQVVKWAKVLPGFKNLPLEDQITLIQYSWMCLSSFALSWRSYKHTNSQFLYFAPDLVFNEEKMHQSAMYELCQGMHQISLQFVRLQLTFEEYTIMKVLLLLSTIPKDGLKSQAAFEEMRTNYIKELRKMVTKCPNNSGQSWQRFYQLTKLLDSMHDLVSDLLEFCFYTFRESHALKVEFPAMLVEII
Source text: In in-vitro activity assays of compounds in the disclosure, the characteristic of luciferase binding to the substrate to cause a chemiluminescence reaction can be utilized to transfect human embryonic kidney cells (HEK293T) with a plasmid comprising the mineralocorticoid receptor ligand binding domain (LBD) and fused with the Gal4 DNA-binding domain (DBD) and a firefly luciferase reporter gene plasmid under the control of Gal4 UAS (upstream activation sequence). The influence of the presence of stimulation or different stimuli on mineralocorticoid receptor activity is judged by the level of firefly luciferase activity.
Test Example 1: Assay for In-Vitro Antagonistic Activity Against Mineralocorticoid Receptors
All the compounds to be tested were serially diluted 3-fold from 10 mM with DMSO (Sigma, D8418), and 10 concentrations were obtained for each of the compounds.
The reference compound eplerenone was serially diluted 3-fold with DMSO to form 10 concentrations.
A 1000× positive control (10 mM eplerenone) and a 1000× negative control (100% DMSO) were prepared.
• 2.1. All cells were cultured as recommended by ATCC. HEK293T cells were passaged and plated when in the exponential growth phase. • 2.2. The old culture medium in the cell culture flask was discarded, and the cells were washed with PBS. • 2.3. A proper amount of TrypLE solution was added to the culture flask to digest the cells to separate them, and the digestion was stopped with a serum-containing complete culture medium. • 2.4. The cell suspension was centrifuged to make the cells settle. The cells were washed with PBS 2 times to remove phenol red and were then suspended with culture medium to a proper concentration (only cells with a survival rate of greater than 90% were used in the subsequent experiments). • 2.5. 6×10^6 HEK293T cells were spread on a 100 mm Petri dish and incubated in a 37° C., 5% CO2 incubator for 16 h. • 2.6. The cells were transfected with plasmids and then incubated in a 37° C., 5% CO2 incubator for another 5-6 h. • 2.7. 25 nL of compound dilution was transferred to a 384-well assay plate using Echo655. • 2.8. HEK293T cells were plated at a concentration of 17,000 cells/well in a 384-well plate, and meanwhile 1 nM aldosterone was added to each well. • 2.9. The cells were incubated in a 37° C., 5% CO2 incubator for 18-20 h. • 2.10. 25 μL of britelite+luciferase assay reagent was added to each well of the 384-well assay plate, and luminescence values were recorded on an Envision 2105 plate reader. • 2.11. The IC50 values of the compounds were obtained using the software Graphad 8.0 and a non-linear fitting equation.

[2] = test system: db/db mice (idiopathic type II diabetes model mice); experiment: Efficacy test with db/db mouse model of diabetic nephropathy; format: in vivo; settings: for mALB compared to the model control group / urine albumin-to-creatinine ratio (UACR) compared to the model control group / urine amount compared to the model control group: after 4 weeks of administration, in words; for UACR / Urine creatinine / Urine weight / mALB: Mean±SEM
Method: Test Example 3: Efficacy Test with db/db Mouse Model of Diabetic Nephropathy
Proper amounts of compound 2-2 and finerenone were taken and separately mixed with a 0.5% hydroxyethyl cellulose solution (Tylose MH300) to form suspensions.
30 db/db mice (idiopathic type II diabetes model mice) were selected and divided into a model control group, a positive control group, and an administration group, and 10 db/m mice were selected as a control group.
The mice were dosed by oral gavage (i.g) once daily over 4 consecutive weeks. The dosing regimen is shown in detail in Table 4.
Urine albumin was used as a main measure. The data obtained were analyzed statistically using EXCEL and IBM SPSS Statistics 22.0.
All metrology data are expressed as Mean±SEM s. The parameters before and after dosing were plotted for the different groups of animals using the software Graph Pad Prism 8. Data were analyzed using the statistical software SPSS 22.0. A Levene's test of homogeneity of variance was performed on the parameters. When the variance was homogenous (P≥0.05), the Dunnett's & LSD method from the one-way analysis of variance (ANOVA) was used to compare the differences between the groups. When the variance was not homogenous (P<0.05), the Mann-Whitney U test (the M-W method) from the Kruskal-Wallis H test (the K-W method) was used to compare the differences between the groups. For animal survival, the log-rank test from the product-limit method (the K-M method) was used to compare the differences between the groups.

[3] = Human liver microsome metabolism study; format: in vitro ADME; settings: human liver microsomes
Method: Test Example 2: Human Liver Microsome Metabolism Study
222.5 μL of human liver microsomes (protein concentration: 1 mg/mL) and 25 μL of NADPH ([…]) were added to an incubation plate and pre-heated for 10 min. 2.5 μL of control compound and test compound (100 μM) were added.
30-μL aliquots were taken from the reaction solution at 0.5, 5, 10, 15, 20, and 30 min. The reaction was stopped by adding 5 volumes of cold acetonitrile containing IS (100 nM alprazolam, 200 nM caffeine, and 100 nM tolbutamide). The reaction solution was centrifuged, and 100 μL of the supernatant was collected and mixed with 100 μL of ultrapure H2O before analysis by LC-MS/MS.
The slope value k was determined by linear regression of the natural logarithm of a curve of the parent drug remaining percentage versus incubation time.
The in-vitro half-life (in-vitro T1/2) was determined by the slope value:
Using the following equation (the average of repeated measurements), the in-vitro T½ (min) was converted to in-vitro intrinsic clearance (in-vitro CLint, in μL/min/mg protein): […]

[4] = 15 mg/kg i.g. once daily, 4 weeks

SMILES: COc1cc(C#N)ccc1C1C(C(N)=O)=C(C)Nc2c(C)cnc(OCCSC)c21 (centres unmarked) [Compound 1]
IC50 [1]: 16 nM

SMILES: [2H]C([2H])([2H])C([2H])([2H])Oc1ncc(C)c2c1C(c1ccc(C#N)cc1OC)C(C(N)=O)=C(C)N2 (centres unmarked) [Compound 3]
IC50 [1]: 17 nM

SMILES: CCOc1ncc(C)c2c1[C@H](c1ccc(C#N)cc1OC)C(C(N)=O)=C(C)N2 [Finerenone]
UACR ([2]; 0 weeks (before dosing)): 5538.19 µg/mg
Urine creatinine ([2]; 0 weeks (before dosing)): 0.37 μmol/24 h
Urine weight ([2]; 0 weeks (before dosing)): 2.86 mL
mALB ([2]; 0 weeks (before dosing)): 226.68 μg/24 h
UACR [2, 4]: 4294.14 µg/mg
Urine creatinine [2, 4]: 2.11 μmol/24 h
Urine weight [2, 4]: 11.96 mL
mALB [2, 4]: 1,013.76 μg/24 h
mALB compared to the model control group [2]: tended to be lower than those in the model control group
urine albumin-to-creatinine ratio (UACR) compared to the model control group [2]: decreased somewhat but is not significantly different from that of the mice in the model group
urine amount compared to the model control group [2]: tended to be lower than those in the model control group
Remaining amount % ([3]; 0.5 min): 100.00%
Remaining amount % ([3]; 5 min): 67.31%
Remaining amount % ([3]; 10 min): 42.44%
Remaining amount % ([3]; 15 min): 24.78%
Remaining amount % ([3]; 20 min): 16.62%
Remaining amount % ([3]; 30 min): 7.44%
half-life at 1 μM ([3]; in-vitro half-life): 7.4 min
microsomal CLint at 1 μM ([3]; in-vitro intrinsic clearance): 93.7 µL/min/mg
IC50 [1]: 13 nM

Now those with a lower IC50 [1], led by results:

IC50 [1]: 7 nM
SMILES: [2H]C([2H])([2H])Oc1cc(C#N)ccc1C1C(C(N)=O)=C(C)Nc2c(C)cnc(OCC)c21 (centres unmarked) [Compound 2]
mALB compared to the model control group [2]: tended to be lower than those in the model control group
urine albumin-to-creatinine ratio (UACR) compared to the model control group [2]: statistically significantly smaller than that of the mice in the model control group (P<0.01)
urine amount compared to the model control group [2]: tended to be lower than those in the model control group

IC50 [1]: 11 nM
SMILES: CCOc1ncc(Cl)c2c1C(c1ccc(C#N)cc1OC)C(C(N)=O)=C(C)N2 (centres unmarked) [Compound 4]

IC50 [1]: 5 nM
SMILES: CCOc1nc(Cl)cc2c1C(c1ccc(C#N)cc1OC)C(C(N)=O)=C(C)N2 (centres unmarked) [Compound 5]

IC50 [1]: 10 nM
SMILES: CCOc1ncc(C)c2c1C(c1cc(C)c(C#N)cc1OC)C(C(N)=O)=C(C)N2 (centres unmarked) [Compound 6]
